In patent publication US9856279B2 (AGIOS PHARMACEUTICALS, INC, priority 2011, dated 2018):

What follows are compounds tested against IDH1 R132H (Homo sapiens, UniProt O75874, R132H) (assay: Assay for IDH1 R132H inhibitors (NADPH/aKG, resazurin detection)). Conditions: Table 3; enzyme assay, 50 minutes at room temperature; read-out: IC50 (IDH1 R132H Inhibition).
Format: biochemical
Description: Assays were conducted in a volume of 76 μl assay buffer (150 mM NaCl, 10 mM MgCl2, 20 mM Tris pH 7.5, 0.03% bovine serum albumin) as follows in a standard 384-well plate: To 25 ul of substrate mix (8 uM NADPH, 2 mM aKG), 1 μl of test compound was added in DMSO. The plate was centrifuged briefly, and then 25 μl of enzyme mix was added (0.2 μg/ml IDH1 R132H) followed by a brief centrifugation and shake at 100 RPM. The reaction was incubated for 50 minutes at room temperature, then 25 μl of detection mix (30 μM resazurin, […]) was added and the mixture further incubated for 5 minutes at room temperature. The conversion of resazurin to resorufin was detected by fluorescent spectroscopy at Ex544 Em590 c/o 590.

Chain of IDH1 R132H (O75874 whole entry R132H): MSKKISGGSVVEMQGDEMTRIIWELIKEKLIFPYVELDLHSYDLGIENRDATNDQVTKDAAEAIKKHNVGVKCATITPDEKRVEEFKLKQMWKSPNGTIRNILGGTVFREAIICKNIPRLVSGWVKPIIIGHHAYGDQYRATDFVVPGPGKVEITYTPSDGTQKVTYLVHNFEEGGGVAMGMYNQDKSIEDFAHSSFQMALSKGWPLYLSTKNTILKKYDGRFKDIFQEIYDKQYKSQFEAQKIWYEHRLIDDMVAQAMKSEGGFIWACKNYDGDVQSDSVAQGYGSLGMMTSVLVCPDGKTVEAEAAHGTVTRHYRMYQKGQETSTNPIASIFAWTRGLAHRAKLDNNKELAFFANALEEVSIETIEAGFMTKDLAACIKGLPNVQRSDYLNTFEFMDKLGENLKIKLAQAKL

IC50	Structure (SMILES)
≤ 1000 nM	COCCC(=O)N1CCN(c2nc(C(C)C)c(-c3cncc4ccccc34)cc2C#N)C[C@H]1C [Compound 234, (R)-6-isopropyl-5-(isoquinolin-4-yl)-2-(4-(3-methoxypropanoyl)-3-methylpiperazin-1-yl)nicotinonitrile]
≤ 1000 nM	COCCC(=O)N1CCN(c2nc(C3CC3)c(-c3ccc(OC)nc3)cc2C#N)C[C@H]1C [Compound 252, (R)-2-cyclopropyl-6′-methoxy-6-(4-(3-methoxypropanoyl)-3-methylpiperazin-1-yl)-3,3′-bipyridine-5-carbonitrile]
1000 to 5000 nM	CC[C@@H]1CN(c2nc(C(C)C)c(-c3ccccc3)cc2C#N)CCN1C(=O)c1ccoc1 [Compound 171, (R)-2-(3-ethyl-4-(furan-3-carbonyl)piperazin-1-yl)-6-isopropyl-5-phenylnicotinonitrile]
1000 to 5000 nM	Cc1ccccc1-c1cc(C(C)C)nc(N2CCN(C(=O)c3ccoc3)[C@H](C)C2)c1C#N [Compound 158]
1000 to 5000 nM	COCCC(=O)N1CCN(c2nc(C(C)C)c(-c3ccc(C)c(C)c3)cc2C#N)C[C@H]1C [Compound 220, (R)-5-(3,4-dimethylphenyl)-6-isopropyl-2-(4-(3-methoxypropanoyl)-3-methylpiperazin-1-yl)nicotinonitrile]
5000 to 15000 nM	COc1ccccc1-c1cc(C(C)C)nc(N2CCN(C(=O)c3ccco3)C(C)C2)c1C#N (centres unmarked) [Compound 147, 2-(4-(furan-2-carbonyl)-3-methylpiperazin-1-yl)-6-isopropyl-4-(2-methoxyphenyl)nicotinonitrile]
≤ 1000 nM	COCCC(=O)N1CCN(c2nc(C3CC3)c(-c3cccc(F)c3)cc2C#N)C[C@H]1C [Compound 229, (R)-6-cyclopropyl-5-(3-fluorophenyl)-2-(4-(3-methoxypropanoyl)-3-methylpiperazin-1-yl)nicotinonitrile]
≤ 1000 nM	COCCC(=O)N1CCN(c2nc(C3CC3)c(-c3ccsc3)c(C)c2C#N)C[C@H]1C [Compound 262, (R)-6-cyclopropyl-2-(4-(3-methoxypropanoyl)-3-methylpiperazin-1-yl)-4-methyl-5-(thiophen-3-yl)nicotinonitrile]
1000 to 5000 nM	COCCC(=O)N1CCN(c2nc(C(C)C)c(-c3cc4ccccc4o3)cc2C#N)C[C@H]1C [Compound 209, (R)-5-(benzofuran-2-yl)-6-isopropyl-2-(4-(3-methoxypropanoyl)-3-methylpiperazin-1-yl)nicotinonitrile]
1000 to 5000 nM	CC(C)c1nc(N2CCN(C(=O)Cc3ccccc3)[C@H](C)C2)c(C#N)cc1-c1ccccc1 [Compound 143, (R)-6-isopropyl-2-(3-methyl-4-(2-phenylacetyl)piperazin-1-yl)-5-phenylnicotinonitrile]
1000 to 5000 nM	Cc1occc1C(=O)N1CCN(c2nc(C(C)C)c(-c3ccc(C(C)C)cc3)cc2C#N)C[C@H]1C [Compound 202, (R)-6-isopropyl-5-(4-isopropylphenyl)-2-(3-methyl-4-(2-methylfuran-3-carbonyl)piperazin-1-yl)nicotinonitrile]
1000 to 5000 nM	CC(C)c1cc(-c2cccc(F)c2)c(C#N)c(N2CC(C)N(C(=O)c3ccoc3)C(C)C2)n1 (centres unmarked) [Compound 134, 4-(3-fluorophenyl)-2-(4-(furan-3-carbonyl)-3,5-dimethylpiperazin-1-yl)-6-isopropylnicotinonitrile]
1000 to 5000 nM	CC(C)c1cc(-c2ccccc2)c(C#N)c(N2CCN(C(=O)Cc3ccccc3)[C@H](C)C2)n1 [Compound 131, (R)-6-isopropyl-2-(3-methyl-4-(2-phenylacetyl)piperazin-1-yl)-4-phenylnicotinonitrile]
5000 to 15000 nM	CC(C)c1nc(N2CCN(C(=O)c3c[nH]c4ccccc34)CC2)c(C#N)cc1-c1ccccc1 [Compound 125, 2-(4-(1H-indole-3-carbonyl)piperazin-1-yl)-6-isopropyl-5-phenylnicotinonitrile]

Same assay, conditions: enzyme assay of Example 12; read-out: IDH1R132H IC50

IC50	Structure (SMILES)
< 500 nM	C=Cc1cc(-c2cc(C#N)c(N3CCN(C(=O)CC4CCC(=O)O4)[C@H](C4CC4)C3)nc2C2CC2)ccn1 (stereo partly drawn) [Compound 802, 2-cyclopropyl-6-((3R)-3-cyclopropyl-4-(2-(5-oxotetrahydrofuran-2-yl)acetyl)piperazin-1-yl)-2′-vinyl-[3,4′-bipyridine]-5-carbonitrile]
500 to 1000 nM	COCCC(=O)N1CCN(c2nc(C3CC3)c(-c3cccc(N(C)C)c3)cc2C#N)C[C@H]1C [Compound 413, (R)-6-cyclopropyl-5-(3-(dimethylamino)phenyl)-2-(4-(3-methoxypropanoyl)-3-methylpiperazin-1-yl)nicotinonitrile]
500 to 1000 nM	N#Cc1cc(-c2cccc3cnccc23)c(C2CC2)nc1N1CCN(C(=O)C2CC2)C(CC(F)(F)F)C1 (centres unmarked) [Compound 423, 2-(4-(cyclopropanecarbonyl)-3-(2,2,2-trifluoroethyl)piperazin-1-yl)-6-cyclopropyl-5-(isoquinolin-5-yl)nicotinonitrile]
< 500 nM	C=Cc1ccnc(Nc2cc(C#N)c(N3CCN(C(=O)C[C@H]4CCCO4)[C@H](C4CC4)C3)nc2C2CC2)c1 [Compound 828]
500 to 1000 nM	N#Cc1cc(-c2cccc3cnccc23)c(C2CC2)nc1N1CCN(C(=O)CCC=O)[C@H](C2CC2)C1 [Compound 519, (R)-6-cyclopropyl-2-(3-cyclopropyl-4-(4-oxobutanoyl)piperazin-1-yl)-5-(isoquinolin-5-yl)nicotinonitrile]
< 500 nM	COCCC(=O)N1CCN(c2nc(C3CC3)c(-c3ccccc3CO)c(C)c2C#N)C[C@H]1C [Compound 372, (R)-6-cyclopropyl-5-(2-hydroxymethyl-phenyl)-2-[4-(3-methoxy-propionyl)-3-methyl-piperazin-1-yl]-4-methyl-nicotinonitrile]
1000 to 10000 nM	COCCC(=O)N1CCN(c2nc(C3CC3)c(-c3ccnc(OS(=O)(=O)C(F)(F)F)c3)cc2C#N)C[C@H]1C [Compound 779, (R)-5-cyano-2-cyclopropyl-6-(4-(3-methoxypropanoyl)-3-methylpiperazin-1-yl)-[3,4′-bipyridin]-2′-yl trifluoromethanesulfonate]
500 to 1000 nM	CCc1ccccc1-c1cc(C#N)c(N2CCN(C(=O)CCOC)[C@H](C)C2)nc1C1CC1 [Compound 334, (R)-6-cyclopropyl-5-(2-ethyl-phenyl)-2-[4-(3-methoxy-propionyl)-3-methyl-piperazin-1-yl]-nicotinonitrile]
500 to 1000 nM	COCCC(=O)N1CCN(c2nc(C3CC3)c(N3CCN(C(C)=O)CC3)cc2C#N)C[C@H]1C [Compound 368, (R)-5-(4-acetylpiperazin-1-yl)-6-cyclopropyl-2-(4-(3-methoxypropanoyl)-3-methylpiperazin-1-yl)nicotinonitrile]
< 500 nM	COC(=O)CCC(=O)N1CCN(c2nc(C3CC3)c(-c3ccnc(Cl)c3)cc2C#N)C[C@H]1C1CC1 [Compound 739, (R)-methyl 4-(4-(2′-chloro-5-cyano-2-cyclopropyl-3,4′-bipyridin-6-yl)-2-cyclopropylpiperazin-1-yl)-4-oxobutanoate]
< 500 nM	COCCC(=O)N1CCN(c2nc(C3CC3)c(N(c3ccnc(C#N)c3)c3ccnc(C#N)c3)cc2C#N)C[C@H]1C [Compound 659, (R)-4,4′-(5-cyano-2-cyclopropyl-6-(4-(3-methoxypropanoyl)-3-methylpiperazin-1-yl)pyridin-3-ylazanediyl)dipicolinonitrile]
< 500 nM	N#Cc1cc(-c2cnnc(O)c2)c(C2CC2)nc1N1CCN(C(=O)C2CC2)[C@H](C2CC2)C1 [Compound 616, (R)-2-(4-(cyclopropanecarbonyl)-3-cyclopropylpiperazin-1-yl)-6-cyclopropyl-5-(6-hydroxypyridazin-4-yl)nicotinonitrile]
500 to 1000 nM	COCCC(=O)N1CCN(c2nc(C3CC3)c(-c3ccc4nnnn4c3)cc2C#N)C[C@H]1C [Compound 370, (R)-6-cyclopropyl-2-[4-(3-methoxy-propionyl)-3-methyl-piperazin-1-yl]-5-tetrazolo[1,5-a]pyridin-6-yl-nicotinonitrile]
500 to 1000 nM	N#Cc1cc(-c2cnnc3ccccc23)c(C2CC2)nc1N1CCN(C(=O)C2CC2)[C@H](C2CC2)C1 [Compound 495, (R)-5-(cinnolin-4-yl)-2-(4-(cyclopropanecarbonyl)-3-cyclopropylpiperazin-1-yl)-6-cyclopropylnicotinonitrile]
< 500 nM	Cc1nccc2c(-c3cc(C#N)c(N4CCN(C(=O)C5CC5)[C@H](C5CC5)C4)nc3C3CC3)cccc12 [Compound 497, (R)-2-(4-(cyclopropanecarbonyl)-3-cyclopropylpiperazin-1-yl)-6-cyclopropyl-5-(1-methylisoquinolin-5-yl)nicotinonitrile]
< 500 nM	COCCC(=O)N1CCN(c2nc(C3CC3)c(-c3ccc(C(=O)N4CCCC4)cc3)c(C)c2C#N)C[C@H]1C [Compound 333, (R)-6-cyclopropyl-2-[4-(3-methoxy-propionyl)-3-methyl-piperazin-1-yl]-4-methyl-5-[4-(pyrrolidine-1-carbonyl)-phenyl]-nicotinonitrile]
500 to 1000 nM	N#CCn1cc(-c2cc(C#N)c(N3CCN(C(=O)C4CC4)[C@H](C4CC4)C3)nc2C2CC2)cn1 [Compound 486, (R)-5-(1-(cyanomethyl)-1H-pyrazol-4-yl)-2-(4-(cyclopropanecarbonyl)-3-cyclopropylpiperazin-1-yl)-6-cyclopropylnicotinonitrile]
< 500 nM	N#Cc1cc(-c2ccc3ncsc3c2)c(C2CC2)nc1N1CCN(C(=O)C2CC2)[C@H](C2CC2)C1 [Compound 487, (R)-5-(benzo[d]thiazol-6-yl)-2-(4-(cyclopropanecarbonyl)-3-cyclopropylpiperazin-1-yl)-6-cyclopropylnicotinonitrile]
